A short description of data set [1]: Phototoxicity against human skin fibroblasts at 1 to 100 uM measured after 14 hrs incubation and 24 hrs after initial 14 hrs incubation by MTS assay. As to conditions: skin fibroblast. (Tetrazolium assays rely on reduction of a dye to a coloured formazan, in cell work by metabolically active cells.)
The nature of data set [2]: Photohemolytic activity against human erythrocytes at 60 uM after 15 mins in presence of 81197.4 mW/m2 of UVA light. It counts as ADME, cell-based, Erythrocyte.
The nature of data set [3]: Photohemolytic activity against human erythrocytes after 15 mins in presence of 81197.4 mW/m2 of UVA light. The format is ADME, cell-based. The settings on record: erythrocyte, 0.25 h.

For the compound `O=C(c1ccccc1)c1ccc2n1CCC2`, the Activity entry in data set [1] is reported as “Non-toxic”; in data set [2] (erythrocyte, 0.25 h, 60 µM), “Non-toxic”.
As for `CCc1cccc(C(=O)c2ccccc2)c1`, the Activity entry was “Non-toxic” in data set [1] and “Dose-dependent effect” in data set [3].
On to `CC(C(=O)O)c1cccc(C(=O)c2ccccc2)c1` (configuration not stated) [KETOPROFEN], for which the Activity entry in data set [1] is reported as “Non-toxic”.
Regarding `O=C(c1ccccc1)c1ccc2n1CCC2C(=O)O` (configuration not stated) [KETOROLAC], in data set [1], the Activity entry was “Non-toxic”. The hemolysis at 0.25 h, 60 µM in data set [2] (erythrocytes, read-out: Activity) worked out at 20%.

Source of the values: ChEMBL document CHEMBL3132798, “Ketorolac beats ketoprofen: lower photodecarboxylation, photohemolysis and phototoxicity” (Medchemcomm, 2013).
